Assay results as given in ChEMBL document CHEMBL4831524, “AZD0284, a Potent, Selective, and Orally Bioavailable Inverse Agonist of Retinoic Acid Receptor-Related Orphan Receptor C2” (J Med Chem, 2021).

Key:
in vitro = settings: human, liver microsomes
physchem = settings: 1-octanol/phosphate buffered saline, pH 7.4
[1] = Apparent permeability across apical to basolateral side in human Caco-2 cells; type: ADME, cell-based
[2] = Intrinsic permeability of compound from apical to basolateral side in human Caco2 cells; type: ADME, cell-based; settings: Caco-2
cells = settings: Homo sapiens, Th17, 96 h
[3] = target: Voltage-gated inwardly rectifying potassium channel KCNH2 (Homo sapiens, UniProt Q12809)
Sequence of Voltage-gated inwardly rectifying potassium channel KCNH2 (Q12809 whole entry): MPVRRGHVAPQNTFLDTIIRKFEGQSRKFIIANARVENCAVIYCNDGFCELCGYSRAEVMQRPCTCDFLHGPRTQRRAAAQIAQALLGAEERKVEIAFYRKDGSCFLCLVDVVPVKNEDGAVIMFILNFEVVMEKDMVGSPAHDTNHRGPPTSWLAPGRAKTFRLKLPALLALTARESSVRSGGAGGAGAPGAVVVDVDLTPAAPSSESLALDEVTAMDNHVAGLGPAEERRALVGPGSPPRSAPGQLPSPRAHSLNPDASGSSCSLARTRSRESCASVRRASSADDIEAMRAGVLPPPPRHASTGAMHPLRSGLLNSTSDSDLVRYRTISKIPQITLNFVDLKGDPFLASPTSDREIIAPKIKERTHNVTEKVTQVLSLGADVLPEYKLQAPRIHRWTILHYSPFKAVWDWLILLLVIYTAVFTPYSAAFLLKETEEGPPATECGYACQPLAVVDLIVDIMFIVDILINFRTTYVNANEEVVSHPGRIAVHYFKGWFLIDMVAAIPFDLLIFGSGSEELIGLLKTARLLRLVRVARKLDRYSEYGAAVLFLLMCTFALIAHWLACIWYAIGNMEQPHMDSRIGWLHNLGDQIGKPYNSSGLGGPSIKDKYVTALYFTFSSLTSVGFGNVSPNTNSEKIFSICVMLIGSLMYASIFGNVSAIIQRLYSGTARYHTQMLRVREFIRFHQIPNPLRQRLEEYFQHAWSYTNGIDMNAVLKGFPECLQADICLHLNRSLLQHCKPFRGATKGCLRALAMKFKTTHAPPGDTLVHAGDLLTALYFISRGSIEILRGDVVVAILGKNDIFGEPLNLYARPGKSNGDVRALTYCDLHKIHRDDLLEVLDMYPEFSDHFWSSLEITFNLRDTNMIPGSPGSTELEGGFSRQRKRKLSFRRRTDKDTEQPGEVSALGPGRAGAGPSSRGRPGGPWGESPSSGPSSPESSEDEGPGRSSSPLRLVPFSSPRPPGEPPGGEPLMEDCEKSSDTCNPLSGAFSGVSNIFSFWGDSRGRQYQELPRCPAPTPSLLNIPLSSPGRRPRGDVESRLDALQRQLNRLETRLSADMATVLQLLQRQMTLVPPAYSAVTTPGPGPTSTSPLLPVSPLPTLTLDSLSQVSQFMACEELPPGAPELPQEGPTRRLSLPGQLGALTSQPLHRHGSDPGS

| Structure (SMILES) | microsomal CLint (in vitro) | logD (physchem) | Papp A→B [1] | Pm [2] | IC50 (cells) | IC50 [3] |
| --- | --- | --- | --- | --- | --- | --- |
| COCCS(=O)(=O)c1ccc2c(c1)CN(C(C)=O)C2C(=O)Nc1ccc(C(O)(C(F)(F)F)C(F)(F)F)cc1 (centres undefined) | 11 µL/min/mg | 2.5 | – | – | – | – |
| CNS(=O)(=O)c1ccc2c(c1)CN(C(=O)C1CCO1)C2C(=O)Nc1ccc(C(O)(C(F)(F)F)C(F)(F)F)cc1 (centres undefined) | < 3 µL/min/mg | 2.6 | – | – | – | – |
| CNS(=O)(=O)c1ccc2c(c1)CN(C(C)=O)C2C(=O)Nc1ccc(C(O)(C(F)(F)F)C(F)(F)F)cc1 (centres undefined) | < 3 µL/min/mg | 2.8 | – | – | – | – |
| CNC(=O)N1Cc2cc(S(C)(=O)=O)ccc2C1C(=O)Nc1ccc(C(O)(C(F)(F)F)C(F)(F)F)cc1 (centres undefined) | < 3 µL/min/mg | 2.5 | – | – | – | – |
| CC(=O)N1Cc2cc(S(C)(=O)=O)ccc2[C@H]1C(=O)Nc1ccc(C(O)(C(F)(F)F)C(F)(F)F)cc1 | < 3 µL/min/mg | 2.4 | – | – | – | – |
| CC(=O)N1CCc2cc(S(C)(=O)=O)ccc2C1C(=O)Nc1ccc(C(O)(C(F)(F)F)C(F)(F)F)cc1 (racemic) | < 3 µL/min/mg | 2.9 | – | – | – | – |
| CS(=O)(=O)c1ccc2c(c1)CN(C(=O)C1CCO1)C2C(=O)Nc1ccc(C(O)(C(F)(F)F)C(F)(F)F)cc1 (centres undefined) | < 3 µL/min/mg | 2.2 | – | – | – | – |

Further lines, with some results ahead:

| microsomal CLint (in vitro) | logD (physchem) | Papp A→B [1] | Pm [2] | IC50 (cells) | Structure (SMILES) | IC50 [3] |
| --- | --- | --- | --- | --- | --- | --- |
| < 3 µL/min/mg | 2.9 | – | – | – | CCS(=O)(=O)c1ccc2c(c1)CN(C=O)C2C(=O)Nc1ccc(C(O)(C(F)(F)F)C(F)(F)F)cc1 (centres undefined) | – |
| 3.1 µL/min/mg | 2.1 | – | – | – | CC(=O)N1Cc2cc(S(=O)(=O)CCO)ccc2C1C(=O)Nc1ccc(C(O)(C(F)(F)F)C(F)(F)F)cc1 (centres undefined) | – |
| < 3 µL/min/mg | 2.5 | 0.7 ×10⁻⁶ cm/s | 7.7 | 63 nM | CCS(=O)(=O)c1ccc(C(NC(C)=O)C(=O)Nc2ccc(C(O)(C(F)(F)F)C(F)(F)F)cc2)nc1 (centres undefined) | – |
| < 3 µL/min/mg | 2.9 | – | – | 224 nM | CCS(=O)(=O)c1ccc(C(Cc2nnco2)C(=O)Nc2ccc(C(O)(C(F)(F)F)C(F)(F)F)cc2)cc1 (centres undefined) | – |
| < 3 µL/min/mg | 2.8 | – | – | – | CCS(=O)(=O)c1ccc(C(NC(=O)Cc2ccccn2)C(=O)Nc2ccc(C(O)(C(F)(F)F)C(F)(F)F)cc2)nc1 (centres undefined) | 4.1 µM |
| < 3 µL/min/mg | 1.9 | – | – | – | CS(=O)(=O)c1ccc2c(c1)CN(C(=O)CO)C2C(=O)Nc1ccc(C(O)(C(F)(F)F)C(F)(F)F)cc1 (centres undefined) | – |
| < 3 µL/min/mg | 3.2 | 0.3 ×10⁻⁶ cm/s | 3.2 | – | CCS(=O)(=O)c1ccc([C@@H](CC(=O)NC)C(=O)Nc2ccc(C(O)(C(F)(F)F)C(F)(F)F)cc2)cc1 | > 40 µM |
| 21 µL/min/mg | 4 | 0.9 ×10⁻⁶ cm/s | 29 | – | CCS(=O)(=O)c1ccc(C(NC(=O)Cc2ccccc2)C(=O)Nc2ccc(C(O)(C(F)(F)F)C(F)(F)F)cc2)nc1 (centres undefined) | 16 µM |
| < 3 µL/min/mg | 3 | – | – | – | CS(=O)(=O)c1ccc2c(c1)CNC2C(=O)Nc1ccc(C(O)(C(F)(F)F)C(F)(F)F)cc1 (centres undefined) | – |
| 5 µL/min/mg | 3.1 | 1.4 ×10⁻⁶ cm/s | 24 | 91 nM | CCS(=O)(=O)c1ccc(C(CC(=O)N(C)C)C(=O)Nc2ccc(C(O)(C(F)(F)F)C(F)(F)F)cc2)cc1 (centres undefined) | – |
| 16 µL/min/mg | > 4 | 2.6 ×10⁻⁶ cm/s | 44 | 360 nM | CCS(=O)(=O)c1ccc(C(Cn2cccn2)C(=O)Nc2ccc(C(O)(C(F)(F)F)C(F)(F)F)cc2)cc1 (centres undefined) | 2.4 µM |
